Measurements reported in patent publication US20210172002A1, “DETECTING CELL VITALITY” (THE UNIVERSITY OF WARWICK, priority 2018, published 2021).

Columns and labels:
[1] = test system: B. subtilis; assay: Fluorescence response to an electric field in a mixed culture in the presence of vancomycin (FIG. 6); assay type: cell-based, Bacillus subtilis; conditions: vancomycin treated B. subtilis cells in mixed culture with E. coli; trace 601 of FIG. 6
From the text: (§1) In an experimental setup, bacterial cells were inoculated on agarose pads and placed on the electrode surface, enabling monitoring of cells at single-cell resolution by microscopy. The membrane potential dynamics of cells was monitored using the fluorescent Nernstian indicator dye, Thioflavin T (ThT), which has been used extensively with bacteria.
The sample (shown in FIG. 3) was subjected to alternating 3V pulses at a frequency of 100 Hz for 2.5 seconds. The mean response 501 of ten UV-treated cells is shown in FIG. 5 alongside the mean response 502 of ten non-UV-treated cells.
(§2) In the mixed culture. […] The presence of E. coli or other coliforms could therefore be confirmed through fluorescence analysis of a sample treated with a selective antibiotic such as vancomycin.

[2] = test system: E. coli; assay: as above; assay type: cell-based, Escherichia coli; conditions: E. coli cells in mixed culture with B. subtilis in the presence of vancomycin; trace 602 of FIG. 6
From the text: as §1
When a series of electrical pulses (±1.5 V AC 0.1 kHz for 2.5 seconds) were applied to E. coli (K12 strain) cells placed in the electrode gaps, the pulses caused hyperpolarization (seen by an increase of ThT fluorescence signal) in vital cells. FIG. 3 illustrates the effect of applying an electric field across a sample 304 as viewed between a pair of opposing electrodes 301, 302 in an apparatus of the type illustrated in FIG. 1. […] An electric field was then applied, and the image shown represents the difference in fluorescence over a period of time after the application of the electric field. […] This provides a clear indication that the change in fluorescence is an indication of the vitality of cells within the sample.
as §2

CN[C@H](CC(C)C)C(=O)N[C@H]1C(=O)N[C@@H](CC(N)=O)C(=O)N[C@H]2C(=O)N[C@H]3C(=O)N[C@H](C(=O)N[C@H](C(=O)O)c4cc(O)cc(O)c4-c4cc3ccc4O)[C@H](O)c3ccc(c(Cl)c3)Oc3cc2cc(c3O[C@@H]2O[C@H](CO)[C@@H](O)[C@H](O)[C@H]2O[C@H]2C[C@](C)(N)[C@H](O)[C@H](C)O2)Oc2ccc(cc2Cl)[C@H]1O [vancomycin]
log of a fluorescent response (membrane potential change) [1]: depolarization | log of a fluorescent response (membrane potential change) [2]: hyperpolarized
